Values of other authors in patent US9867849B2, “Methods of treating or ameliorating skin conditions with a magnetic dipole stabilized solution” (REVEN PHARMACEUTICALS, INC., priority 2010, dated 2018).

What was measured:
[1] = 241 osteoporotic women, 45 mg/day vitamin K2 and 150 mg elemental calcium, after two years
[2] = tested on: blast cell numbers in bone marrow and/or peripheral blood; settings: of those receiving other medication concomitantly; 20-135 mg/day orally or 10-50 mg/day intravenously
[3] = rabbits
[4] = higher intake of vitamin K2
[5] = more than 500 postmenopausal women; dietary intake
[6] = 121 patients with hepatocellular carcinoma undergoing conventional therapy; 45 mg/day oral
[7] = rats; 100 mg/kg body weight daily

CC(C)=CCC/C(C)=C/CC/C(C)=C/CC/C(C)=C/CC1=C(C)C(=O)c2ccccc2C1=O [Vitamin K2]
lumbar bone mineral density [1]: maintain lumbar bone mineral density | fracture incidence ([1]; 30% in the control group): 10% | patients in whom blast cell numbers in bone marrow and/or peripheral blood were reduced [2]: ~71% | atherosclerotic plaque progression in the aorta and pulmonary arteries ([3]; 1-10 mg/kg daily for 10 weeks): inhibited | ester cholesterol deposition in the aorta ([3]; compared to the control group): reduce | factor X activity in plasma ([3]; compared to the control group): reduce | lipid peroxidation ([3]; compared to the control group): reduce | total cholesterol levels ([3]; compared to the control group): reduce | reduction of prostate cancer risk [4]: 35% | coronary calcification (association with intake) [5]: associated with the trend toward decreasing coronary calcification | survival [6]: significant increase in survival | increase in calcium in both kidneys and aorta induced by megadose of synthetic vitamin D [7]: inhibited
